Test results published in patent publication US5863905A, “2',5'-phosphorothioate/phosphodiester oligoadenylates and anti-viral uses thereof” (Temple University-Of The Commonwealth System of Higher …, priority 1997, dated 1999).
Values joined by “and” are separate entries in the source; they are usually repeats but may differ in a detail not shown here. Equal entries are not always repeated. “Also recorded” adds a separate entry of the source.

Assays:
serum phosphodiesterases = test: Stability of 2-5A core derivatives to serum phosphodiesterase; assay type: in vitro ADME, fetal calf; details: for Hydrolysis Products / % Hydrolysis: 300 μM, 37° C.; for Hydrolysis Products: 10% fetal calf serum, 6 h, identified by HPLC; for % Hydrolysis: RPMI-1640 + 10% fetal calf serum, 6 h (A2, A3: 20 min); for hydrolysis (in words): serum-containing medium
Procedure: The stability of authentic 2-5A and phosphorothioate/phosphodiester trimer and tetramer core derivatives (300 μM) was determined by incubation in 200 μL of RPMI-1640 medium supplemented with 10% fetal calf serum in 5% CO2 -in-air at 37° C. Aliquots (30 μL) were removed at time zero and 6 hours. The hydrolysis products were identified by HPLC as described in Kariko et al. , Biochemistry 26: 7127-7135 (1987).
No hydrolysis of the phosphorothioate/phosphodiester trimer core derivatives was observed. However, the phosphorothioate/phosphodiester tetramer core derivatives were hydrolyzed from the 5'- or 2',3'-terminus, depending on the location of the phosphorothioate-substituted internucleotide linkage.

RNase L = test: rRNA cleavage assay in L929 cell extracts (activation of RNase L); assay type: biochemical; details: 1 h at 30° C., > = no activation up to this concentration
Procedure: FIG. 2A represents the results of a ribosomal RNA cleavage assay with 2',5'-phosphorothioate/phosphodiester trimer core 2-5A derivatives. The procedure was performed according to the method of Kariko et al., Biochemistry 26: 7127-7135 (1987). 2-5A oligomer (phosphodiester internucleotide linkage) is also included for comparison. L929 cell extracts were incubated in the absence (lane 1) or presence of p3 A3 at 10^-8 M (lane 2), ARp *ApA at 10^-6 M (lane 3), ASp *ApA at 10^-6 M (lane 4), ApARp *A at 10^-6 M (lane 5), ApASp *A at 10^-6 M (lane 6) or A3 at 10^-6 M (lane 7). The positions of 28S and 18S rRNA are shown; the arrows indicate the positions of the well-characterized specific cleavage products (SCP) of RNase L.
FIG. 2B represents the results of a ribosomal RNA cleavage assay performed according to the method of FIG. 2A with 2',5'-phosphorothioate/phosphodiester trimer 5'-monophosphate derivatives. L929 cell extracts were incubated in the absence (lane 1) or presence of p3 A3 at 2×10^-9 M (lane 2), pA3 at 10^-6 M (lane 3), pARp *ApA at 10^-7 M (lane 4), pASp *ApA at 10^-7 M (lane 5), pApARp *A at 2×10^-9 M (Lane 6), pApASp *A at 10^-7 M (lane 7).
FIG. 3A represents the results of a ribosomal RNA cleavage assay performed according to the method of FIG. 2A with 2',5'-phosphorothioate/phosphodiester tetramer core 2-5A derivatives. 2-5A oligomer (phosphodiester internucleotide linkage) is also included for comparison. L929 cell extracts were incubated in the absence (lane 1) or presence of p3 A4 at 10^-8 M (lane 2), A4 at 10^-5 M (lane 3), ARp *ApApA at 10^-5 M (lane 4), ASp *ApApA at 10^-5 M (lane 5), ApARp *ApA at 10^-5 M (lane 6), ApASp *ApA at 10^-5 M (lane 7), ApApARp *A at 10^-5 M (lane 8) or ApApASp *A at 10^-5 M (lane 9).
FIG. 3B represents the results of a ribosomal RNA cleavage assay performed according to the method of FIG. 2A with 2',5'-phosphorothioate/phosphodiester tetramer 5'-monophosphate derivatives. L929 cell extracts were incubated in the absence (lane 1) or presence of p3 A4 at 10^-8 M (lane 2), pA4 at 10^-6 M (lane 3), pARp *ApApA at 10^-6 M (lane 4), pASp *ApApA at 10^-6 M (lane 5), pApARp *ApA at 10^-8 M (lane 6), pApASp *ApA at 10^-5 M (lane 7), pApApARp *A at 10^-7 M (lane 8) or pApApASp *A at 10^-7 M (lane 9).
Activation of RNase L by the phosphorothioate/phosphodiester trimer and tetramer 2-5A derivatives was also measured in a rRNA cleavage assay using L929 cell extracts according to the method of Kariko et al. (1987), supra, in which extracts of L929 cells were incubated for 1 h at 30° C. in the presence or absence of 2-5A or 2-5A derivative. […] Authentic p3 A3 was active at 1×10^-8 M (FIG. 2A, lane 2). The corresponding 5'-monophosphates, pARp *ApA, pASp *ApA and pApARp *A, activated at 1×10^-7 M, 1×10^-7 M, and 2×10^-9 M, respectively (FIG. 2B, lanes 4-6), as compared with pA3 which was active at 1×10^-6 M (lane 3).

HIV-1 strain IIIB = test: Inhibition of HIV-1-induced syncytia formation (infected centers assay); assay type: cell-based; details: for inhibition of syncytia formation (in words): 3×10^-4 M (adenosine 9×10^-4 M); for inhibition of HIV-1-induced syncytia formation: 3×10^-4 M, PBL infected with HIV-1 IIIB, Sup T1 cells, read at 72 h
Text: FIG. 5A represents the results of an assay performed according to the method of Henderson et al., Virology 182: 186-198 (1991), indicating the inhibition of HIV-1 (IIIB)-induced syncytia formation by adenosine, 2-5A trimer or tetramer core or 2',5'- phosphorothioate/phosphodiester trimer derivatives: ARp *ApA, ASp *ApA, ApARp *A, ApASp *A, ARp *ApApA, ASp *ApApA, ApARp *ApA, ApASp *ApA, ApApARp *A, ApApASp *A.
FIG. 5B is the results of an assay performed according to the method of FIG. 5A with a 2',5'-phosphorothioate/phosphodiester tetramer derivative of 2-5A core.
The infected centers assay as described by Henderson et al., Virology 182: 186-198 (1991), was used to measure the ability of the phosphorothioate/phosphodiester derivatives of 2-5A trimer and tetramer cores to inhibit HIV-1 induced syncytia formation, an indicator of HIV-1 replication in T cells. Freshly isolated peripheral blood lymphocytes (PBL) were treated with 2-5A or derivatives for 2 h and infected with HIV-1 strain IIIB at a m.o.i. of approximately 0.1. The infected PEL were maintained in RPMI-1640 medium supplemented with 10% (v/v) heat-inactivated fetal calf serum at 37° C. in a humidified 5% CO2 in air atmosphere. After 48 h, the cells were washed twice in Hank's balaned salt solution, serially diluted and seeded into multiple wells of a 96-well microtiter plate. Immediately, 2×10^5 exponentially growing Sup T1 cells were added to each well; Sup T1 cells readily form a syncytium with a cell which is productively infected with HIV-1. The wells were examined daily for the presence of syncytia, using a tissue culture microscope. The first signs of syncytia formation can be seen in 12 h, with some complete syncytia developing by 24 h. Final results were read at 72 h. Each syncytium was counted as a single infected cell. The number of syncytia per seeded cell is determined and expressed as an infected center per infected cell. In the control (no 2-5A derivative added), 100% syncytia formation was equivalent to 12±3 syncytia per 200 HIV-1 infected cells.

[1] = system: HIV-1 reverse transcriptase; test: HIV-1 reverse transcriptase activity in culture supernatant of infected Sup T1 cells; assay type: cell-based; details: for Percent Inhibition of HIV-1 Reverse Transcriptase: 300 μM (adenosine and adenine 900 μM), 6 h pre-treatment, 96 h post-infection, average of triplicates
Procedure: Sup T1 cells were treated with 2-5A or a phosphorothioate/phosphodiester derivative at 300 μM for 6 hours and then infected with HIV-1 at a multiplicity of infection (M.O.I) of approximately 0.1. Adenosine and adenine were tested at 900 μM. At 96 hours post-infection, culture supernatant was removed and HIV-1 RT activity was assayed in triplicate as described by Henderson et al., Virology 182:186-198 (1991). Briefly in this method, 25 μl of culture supernatant was added to a 50 μl cocktail containing 50 mM Tris (pH 8.0), 20 mM dithiothreitol, 10 mM MgCl2, 60 mM NaCl, 0.05 Nonidet p-40, 5 μg/ml oligodeoxythymidylic acid, 10 μg/ml polyriboadenylic acid, 10 μM deoxythymidine triphosphate and 1 mCi [^32 p]thymidine 5'-triphosphate. The mixture was incubated at 37° C. for 2 hours. Fifty microliters of the cocktail were then spotted onto diethylaminoethyl (DEAE) paper, dried, washed with 2× SSC solution (three times for 10 minutes each time) and 95% ethanol (two times for 5 minutes each time), dried and exposed to radiographic film for 18 to 24 hours at -80° C. The filters were cut and final quantitation was determined by scintillation spectrometry.

Row | Compound | Hydrolysis Products (serum phosphodiesterases) | % Hydrolysis (serum phosphodiesterases) | hydrolysis (in words) (serum phosphodiesterases) | concentration at which RNase L is activated to cleave rRNA to SCP (RNase L) [µM] | inhibition of syncytia formation (in words) (HIV-1 strain IIIB) | inhibition of HIV-1-induced syncytia formation (HIV-1 strain IIIB) [%] | Percent Inhibition of HIV-1 Reverse Transcriptase [1] [%] | inhibition of HIV-1 RT activity (in words) [1] | inhibition of syncytia formation (in words) (HIV-1 strain IIIB; listed as Adenosine)
1 | Nc1ncnc2c1ncn2[C@@H]1O[C@H](CO[P@@](O)(=S)O[C@@H]2[C@H](O)[C@@H](COP(=O)(O)O[C@@H]3[C@H](O)[C@@H](COP(=O)(O)O[C@@H]4[C@H](O)[C@@H](CO)O[C@H]4n4cnc5c(N)ncnc54)O[C@H]3n3cnc4c(N)ncnc43)O[C@H]2n2cnc3c(N)ncnc32)[C@@H](O)[C@H]1O [ApApARp *A, Adenylyl-(2'-5')-adenylyl-(2'-5')-(PR)-P-thioadenylyl-(2'-5')-adenosine] | inosine, hypoxanthine; also recorded: ApARp *A | 30% | degraded from the 5'-terminus; also recorded: hydrolyzed from the 5'-terminus | 10 | most efficient inhibitors | 90 | 38 |  | 
2 | Nc1ncnc2nc[nH]c12 [adenine, reference compound] |  |  |  |  | not able to inhibit syncytia formation |  | 4 | did not inhibit HIV-1 RT activity | 
3 | Nc1ncnc2c1ncn2[C@@H]1O[C@H](CO)[C@@H](O)[C@H]1O [adenosine, reference compound] |  |  |  |  | did not inhibit syncytia formation |  | 0 | did not inhibit HIV-1 RT activity | not able to inhibit syncytia formation
4 | (PR)-P-thioadenylyl-(2',5')-adenylyl-(2',5')-adenosine [ARp *ApA] | not hydrolyzed | 0% |  | > 1 |  | 10 | 32 |  | 
5 | (PR)-P-thioadenylyl-(2',5')-adenylyl-(2',5')-adenylyl-(2',5')-adenosine [ARp *ApApA] | inosine, hypoxanthine; also recorded: ARp *A | 50% and 100% | rapidly hydrolyzed from the 2',3'-terminus |  |  | 16 | 57 |  | 
6 | (PS)-P-thioadenylyl-(2',5')-adenylyl-(2',5')-adenosine [ASp *ApA] | not hydrolyzed | 0% |  | > 1 |  | 15 | 56 |  | 
7 | (PS)-P-thioadenylyl-(2',5')-adenylyl-(2',5')-adenylyl-(2',5')-adenosine [ASp *ApApA] | inosine, hypoxanthine; also recorded: ASp *A | 50% and 100% | rapidly hydrolyzed from the 2',3'-terminus |  |  | 18 | 54 |  | 
8 | Adenylyl-(2',5')-(PR) -P-thioadenylyl-(2',5')-adenylyl-(2',5')-adenosine [ApARp *ApA] | inosine, hypoxanthine; also recorded: ARp *ApA | 50% |  | 10 |  | 26 | 52 |  | 
9 | Adenylyl-(2',5')-(PS)-P-thioadenylyl-(2',5')-adenylyl-(2',5')-adenosine [ApASp *ApA] | inosine, hypoxanthine; also recorded: ASp *ApA | 50% |  |  |  | 32 | 42 |  | 
10 | Adenylyl-(2',5')-adenylyl-(2',5')-(PS)-P-thioadenylyl-(2',5')-adenosine [ApApASp *A] | inosine, hypoxanthine; also recorded: ApASp *A | 33% | degraded from the 5'-terminus; also recorded: hydrolyzed from the 5'-terminus |  | most efficient inhibitors | 76 | 62 |  | 
